Assay results reported in US6613747B2, “6-O-carbamoyl ketolide antibacterials” (Ortho-McNeil Pharmaceutical, Inc., priority 2000, dated 2003).
≈ marks a conversion by molar mass, not a printed value. Like-named read-outs stand apart in the source and are kept apart here.

Columns and labels:
Assay in all cases: MIC, microdilution broth method (NCCLS)
Type in all cases: cell-based
[1] = test system: S. aureus ATCC29213; conditions: B: S. aureus ATCC29213, 35° C., 16-20 hours
Method: (§1) Minimal inhibitory concentration (MIC) has been an indicator of in vitro antibacterial activity widely used in the art. The in vitro antimicrobial activity of the compounds was determined by the microdilution broth method following the test method from the National Committee for Clinical Laboratory Standards (NCCLS). This method is described in the NCCLS Document M7-A4, Vol. 17, No. 2, “Methods for Dilution Antimicrobial Susceptibility Test for Bacteria that Grow Aerobically—Fourth Edition”, which is incorporated herein by reference.
(§2) In this method two-fold serial dilutions of drug in cation adjusted Mueller-Hinton broth are added to wells in microdilution trays. The test organisms are prepared by adjusting the turbidity of actively growing broth cultures so that the final concentration of test organism after it is added to the wells is approximately 5×10^4 CFU/well.
(§3) Following inoculation of the microdilution trays, the trays are incubated at 35° C. for 16-20 hours and then read. […] The amount of growth in the wells containing the test compound is compared with the amount of growth in the growth-control wells (no test compound) used in each tray. As set forth in Table 1, compounds of the present invention were tested against a variety of Gram positive and Gram negative pathogenic bacteria resulting in a range of activities depending on the organism tested.

[2] = test system: H. influenzae ATCC49247; conditions: E: H. influenzae ATCC49247, 35° C., 16-20 hours
Method: as §1, §2, §3

[3] = test system: E. faecalis ATCC29212; conditions: C: E. faecalis ATCC29212, 35° C., 16-20 hours
Method: as §1, §2, §3

[4] = test system: S. pneumoniae ATCC49619; conditions: D: S. pneumoniae ATCC49619, 35° C., 16-20 hours
Method: as §1, §2, §3

[5] = test system: E. coli OC2605; conditions: A: E. coli OC2605, 35° C., 16-20 hours
Method: as §1, §2, §3

| MIC [1] | MIC [2] | MIC [3] | MIC [4] | MIC [5] | MIC ([1]; Staphylococcus aureus, read-out: MIC) | MIC ([2]; Haemophilus influenzae, read-out: MIC) | MIC ([3]; Enterococcus faecalis, read-out: MIC) | MIC ([4]; Streptococcus pneumoniae, read-out: MIC) | MIC ([5]; Escherichia coli, read-out: MIC) | Structure (SMILES) |
| --- | --- | --- | --- | --- | --- | --- | --- | --- | --- | --- |
| 0.5 µg/mL (≈ 0.659 µM) | 2 µg/mL (≈ 2.64 µM) | 0.12 µg/mL (≈ 0.158 µM) | 0.03 µg/mL (≈ 0.0395 µM) | 16 µg/mL (≈ 21.1 µM) | – | – | – | – | – | CC[C@H]1OC(=O)[C@H](C)C(=O)[C@H](C)[C@@H](O[C@@H]2O[C@H](C)C[C@H](N(C)C)[C@H]2O)[C@](C)(OC(=O)NC/C=C/c2ccncc2)C[C@@H](C)C(=O)[C@H](C)[C@H]2NC(=O)O[C@@]21C [Compound 30] |
| 0.25 µg/mL (≈ 0.309 µM) | 2 µg/mL (≈ 2.47 µM) | 0.06 µg/mL (≈ 0.0741 µM) | 0.03 µg/mL (≈ 0.037 µM) | 16 µg/mL (≈ 19.8 µM) | – | – | – | – | – | CC[C@H]1OC(=O)[C@H](C)C(=O)[C@H](C)[C@@H](O[C@@H]2O[C@H](C)C[C@H](N(C)C)[C@H]2O)[C@](C)(OC(=O)NCc2ccc(-c3ncccn3)cc2)C[C@@H](C)C(=O)[C@H](C)[C@H]2NC(=O)O[C@@]21C [Compound 31] |
| 1 µg/mL (≈ 1.25 µM) | 1 µg/mL (≈ 1.25 µM) | 0.12 µg/mL (≈ 0.15 µM) | 0.06 µg/mL (≈ 0.0752 µM) | >16 µg/mL | – | – | – | – | – | CC[C@H]1OC(=O)[C@H](C)C(=O)[C@H](C)[C@@H](O[C@@H]2O[C@H](C)C[C@H](N(C)C)[C@H]2O)[C@](C)(OC(=O)NCc2ccc(-c3cc[nH]n3)cc2)C[C@@H](C)C(=O)[C@H](C)[C@H]2NC(=O)O[C@@]21C [Compound 39] |
| 0.25 µg/mL (≈ 0.309 µM) | 1 µg/mL (≈ 1.23 µM) | 0.12 µg/mL (≈ 0.148 µM) | 0.03 µg/mL (≈ 0.037 µM) | 16 µg/mL (≈ 19.8 µM) | – | – | – | – | – | CC[C@H]1OC(=O)[C@H](C)C(=O)[C@H](C)[C@@H](O[C@@H]2O[C@H](C)C[C@H](N(C)C)[C@H]2O)[C@](C)(OC(=O)NC/C=C/c2ccc3nccnc3c2)C[C@@H](C)C(=O)[C@H](C)[C@H]2NC(=O)O[C@@]21C [Compound 41] |
| 0.5 µg/mL (≈ 0.586 µM) | 1 µg/mL (≈ 1.17 µM) | 0.12 µg/mL (≈ 0.141 µM) | 0.12 µg/mL (≈ 0.141 µM) | 16 µg/mL (≈ 18.7 µM) | – | – | – | – | – | CC[C@H]1OC(=O)[C@H](C)C(=O)[C@H](C)[C@@H](O[C@@H]2O[C@H](C)C[C@H](N(C)C)[C@H]2O)[C@](C)(OC(=O)NCc2ccc(-c3ccc([N+](=O)[O-])cn3)cc2)C[C@@H](C)C(=O)[C@H](C)[C@H]2NC(=O)O[C@@]21C [Compound 42] |
| – | – | – | – | – | 0.25 µg/mL (≈ 0.298 µM) | 2 µg/mL (≈ 2.39 µM) | 0.12 µg/mL (≈ 0.143 µM) | 0.03 µg/mL (≈ 0.0358 µM) | > 16 µg/mL | CC[C@H]1OC(=O)[C@H](C)C(=O)[C@H](C)[C@@H](O[C@@H]2O[C@H](C)C[C@H](N(C)C)[C@H]2O)[C@](C)(OC(=O)NC/C=C/c2ccc(-c3ccn(C)n3)cc2)C[C@@H](C)C(=O)[C@H](C)[C@H]2NC(=O)O[C@@]21C [Compound 43, Carbamic acid, [(2E)-3-[4-(1-methyl-1H-pyrazol-3-yl)phenyl]-2-propenyl]-, (3aS,4R,7R,9R,10R,11R,13R,15R,15aR)-4-ethyltetradecahydro-3a,7,9,11,13,15-hexamethyl-2,6,8,14-tetraoxo-10-[[3,4,6-trideoxy-3-(dimethylamino)-β-D-xylo-hexopyranosyl]oxy]-2H-oxacyclotetradecino[4,3-d]oxazol-11-yl ester] |
| 0.25 µg/mL (≈ 0.298 µM) | 2 µg/mL (≈ 2.39 µM) | 0.12 µg/mL (≈ 0.143 µM) | 0.12 µg/mL (≈ 0.143 µM) | >16 µg/mL | – | – | – | – | – | CC[C@H]1OC(=O)[C@H](C)C(=O)[C@H](C)[C@@H](O[C@@H]2O[C@H](C)C[C@H](N(C)C)[C@H]2O)[C@](C)(OC(=O)NC/C=C/c2ccc(-c3ccnn3C)cc2)C[C@@H](C)C(=O)[C@H](C)[C@H]2NC(=O)O[C@@]21C [Compound 44] |
| 1 µg/mL (≈ 1.14 µM) | 4 µg/mL (≈ 4.55 µM) | 0.5 µg/mL (≈ 0.568 µM) | 0.25 µg/mL (≈ 0.284 µM) | >16 µg/mL | – | – | – | – | – | CC[C@H]1OC(=O)[C@H](C)C(=O)[C@H](C)[C@@H](O[C@@H]2O[C@H](C)C[C@H](N(C)C)[C@H]2O)[C@](C)(OC(=O)NC/C=C/c2ccc(-c3ccc([N+](=O)[O-])cn3)cc2)C[C@@H](C)C(=O)[C@H](C)[C@H]2NC(=O)O[C@@]21C [Compound 45] |
| 0.25 µg/mL (≈ 0.303 µM) | 2 µg/mL (≈ 2.42 µM) | 0.06 µg/mL (≈ 0.0727 µM) | 0.06 µg/mL (≈ 0.0727 µM) | 16 µg/mL (≈ 19.4 µM) | – | – | – | – | – | CC[C@H]1OC(=O)[C@H](C)C(=O)[C@H](C)[C@@H](O[C@@H]2O[C@H](C)C[C@H](N(C)C)[C@H]2O)[C@](C)(OC(=O)NC/C=C/c2ccc(-n3cccn3)nc2)C[C@@H](C)C(=O)[C@H](C)[C@H]2NC(=O)O[C@@]21C [Compound 49] |
| 0.25 µg/mL (≈ 0.293 µM) | 2 µg/mL (≈ 2.35 µM) | 0.06 µg/mL (≈ 0.0704 µM) | ≦0.015 μg/mL | 16 µg/mL (≈ 18.8 µM) | – | – | – | – | – | CC[C@H]1OC(=O)[C@H](C)C(=O)[C@H](C)[C@@H](O[C@@H]2O[C@H](C)C[C@H](N(C)C)[C@H]2O)[C@](C)(OC(=O)NC/C=C/C=C/c2cccc(-n3cncn3)n2)C[C@@H](C)C(=O)[C@H](C)[C@H]2NC(=O)O[C@@]21C [Compound 50] |
| 0.5 µg/mL (≈ 0.605 µM) | 8 µg/mL (≈ 9.69 µM) | 0.12 µg/mL (≈ 0.145 µM) | 0.06 µg/mL (≈ 0.0726 µM) | >16 µg/mL | – | – | – | – | – | CC[C@H]1OC(=O)[C@H](C)C(=O)[C@H](C)[C@@H](O[C@@H]2O[C@H](C)C[C@H](N(C)C)[C@H]2O)[C@](C)(OC(=O)NC/C=C/c2cccc(-n3cncn3)n2)C[C@@H](C)C(=O)[C@H](C)[C@H]2NC(=O)O[C@@]21C [Compound 51] |
| 0.25 µg/mL (≈ 0.309 µM) | 2 µg/mL (≈ 2.47 µM) | 0.12 µg/mL (≈ 0.148 µM) | 0.03 µg/mL (≈ 0.0371 µM) | 8 µg/mL (≈ 9.89 µM) | – | – | – | – | – | CC[C@H]1OC(=O)[C@H](C)C(=O)[C@H](C)[C@@H](O[C@@H]2O[C@H](C)C[C@H](N(C)C)[C@H]2O)[C@](C)(OC(=O)NC/C=C/c2cncc3ccccc23)C[C@@H](C)C(=O)[C@H](C)[C@H]2NC(=O)O[C@@]21C [Compound 52] |
| 0.25 µg/mL (≈ 0.297 µM) | 4 µg/mL (≈ 4.75 µM) | 0.12 µg/mL (≈ 0.142 µM) | 0.03 µg/mL (≈ 0.0356 µM) | 16 µg/mL (≈ 19 µM) | – | – | – | – | – | CC[C@H]1OC(=O)[C@H](C)C(=O)[C@H](C)[C@@H](O[C@@H]2O[C@H](C)C[C@H](N(C)C)[C@H]2O)[C@](C)(OC(=O)NC/C=C/c2ccc(-n3cncn3)c(F)c2)C[C@@H](C)C(=O)[C@H](C)[C@H]2NC(=O)O[C@@]21C [Compound 53] |
| 1 µg/mL (≈ 1.2 µM) | 2 µg/mL (≈ 2.4 µM) | 0.5 µg/mL (≈ 0.6 µM) | 0.12 µg/mL (≈ 0.144 µM) | >16 µg/mL | – | – | – | – | – | CC[C@H]1OC(=O)[C@H](C)C(=O)[C@H](C)[C@@H](O[C@@H]2O[C@H](C)C[C@H](N(C)C)[C@H]2O)[C@](C)(OC(=O)NCC=C(c2ccccc2)c2ccccc2)C[C@@H](C)C(=O)[C@H](C)[C@H]2NC(=O)O[C@@]21C [Compound 54] |
| 0.5 µg/mL (≈ 0.612 µM) | 4 µg/mL (≈ 4.9 µM) | 0.12 µg/mL (≈ 0.147 µM) | 0.03 µg/mL (≈ 0.0367 µM) | 16 µg/mL (≈ 19.6 µM) | – | – | – | – | – | CC[C@H]1OC(=O)[C@H](C)C(=O)[C@H](C)[C@@H](O[C@@H]2O[C@H](C)C[C@H](N(C)C)[C@H]2O)[C@](C)(OC(=O)NCc2ccc(-n3cncn3)c(F)c2)C[C@@H](C)C(=O)[C@H](C)[C@H]2NC(=O)O[C@@]21C [Compound 55] |
| 0.25 µg/mL (≈ 0.307 µM) | 2 µg/mL (≈ 2.45 µM) | 0.06 µg/mL (≈ 0.0736 µM) | ≦0.015 μg/mL | 8 µg/mL (≈ 9.82 µM) | – | – | – | – | – | CC[C@H]1OC(=O)[C@H](C)C(=O)[C@H](C)[C@@H](O[C@@H]2O[C@H](C)C[C@H](N(C)C)[C@H]2O)[C@](C)(OC(=O)NCc2ccc(-c3ccccn3)s2)C[C@@H](C)C(=O)[C@H](C)[C@H]2NC(=O)O[C@@]21C [Compound 56] |
| 0.25 µg/mL (≈ 0.297 µM) | 2 µg/mL (≈ 2.38 µM) | 0.12 µg/mL (≈ 0.143 µM) | 0.03 µg/mL (≈ 0.0357 µM) | 16 µg/mL (≈ 19 µM) | – | – | – | – | – | CC[C@H]1OC(=O)[C@H](C)C(=O)[C@H](C)[C@@H](O[C@@H]2O[C@H](C)C[C@H](N(C)C)[C@H]2O)[C@](C)(OC(=O)NC/C=C/c2ccc(-c3ccccn3)s2)C[C@@H](C)C(=O)[C@H](C)[C@H]2NC(=O)O[C@@]21C [Compound 57] |
| 0.25 µg/mL (≈ 0.297 µM) | 4 µg/mL (≈ 4.75 µM) | 0.12 µg/mL (≈ 0.143 µM) | 0.06 µg/mL (≈ 0.0713 µM) | >16 µg/mL | – | – | – | – | – | CC[C@H]1OC(=O)[C@H](C)C(=O)[C@H](C)[C@@H](O[C@@H]2O[C@H](C)C[C@H](N(C)C)[C@H]2O)[C@](C)(OC(=O)NC/C=C/c2ccc(-n3cccn3)c(F)c2)C[C@@H](C)C(=O)[C@H](C)[C@H]2NC(=O)O[C@@]21C [Compound 58] |
| 0.5 µg/mL (≈ 0.613 µM) | 4 µg/mL (≈ 4.9 µM) | ≦0.25 μg/mL | 0.03 µg/mL (≈ 0.0368 µM) | >16 µg/mL | – | – | – | – | – | CC[C@H]1OC(=O)[C@H](C)C(=O)[C@H](C)[C@@H](O[C@@H]2O[C@H](C)C[C@H](N(C)C)[C@H]2O)[C@](C)(OC(=O)NCc2ccc(-n3cccn3)c(F)c2)C[C@@H](C)C(=O)[C@H](C)[C@H]2NC(=O)O[C@@]21C [Compound 59] |
